Test results from PMC4527605 (ACS infectious diseases, 2015).
Values after ≈ are worked out from the molar mass of the structure shown.

Assays:
[1] = test system: M. tuberculosis H37Rv; assay: M. tuberculosis H37Rv growth inhibition; format: cell-based, Mycobacterium tuberculosis; details: for MIC: Mycobacterium tuberculosis, H37RV, read-out: Mt = M. tuberculosis H37Rv, MIC, estimated visually from 2x serial dilutions
[2] = test system: M. smegmatis; assay: M. smegmatis growth inhibition; format: cell-based, Mycobacterium smegmatis; details: Mycolicibacterium smegmatis, read-out: Ms = M. smegmatis, IC50
[3] = test system: M. tuberculosis Erdman; assay: M. tuberculosis Erdman growth inhibition; format: cell-based, Mycobacterium tuberculosis; details: estimated visually from 2x serial dilutions
[4] = test system: B. subtilis; assay: B. subtilis growth inhibition; format: cell-based; details: Bacillus subtilis, read-out: Bs = B. subtilis, IC50
[5] = test system: E. coli; assay: E. coli growth inhibition; format: cell-based; details: Escherichia coli, read-out: Ec = E. coli, IC50
[6] = test system: S. cerevisiae; assay: S. cerevisiae growth inhibition; format: cell-based; details: Saccharomyces cerevisiae, read-out: Sc = S. cerevisiae, IC50
[7] = HEK293T cell growth inhibition; format: cell-based; details: human, HEK293T cells
[8] = HepG2 cell growth inhibition; format: cell-based; details: human, HepG2 cells
[9] = test system: M. tuberculosis H37Rv; details: cited from earlier work
[10] = test system: Trypanosoma brucei; assay: T. brucei 427
[11] = test system: inner mitochondrial membrane potential, Δψ; assay: Mitochondrial membrane potential; format: cell-based, Trypanosoma brucei; details: PCF, oligomycin 2 μg/ml, Figure 4C

SMILES | MIC [1] | IC50 [2] | Mt = M. tuberculosis H37Rv, MIC ([1]; estimated visually from 2x serial dilutions) | MtE = M. tuberculosis Erdman, MIC [3] | MtE = M. tuberculosis Erdman, MIC ([3]; listed as SQ109) | IC50 [4] | IC50 [5] | IC50 [6] | CC50 [7] | CC50 [8] | MIC against M. tuberculosis (previous work) [9] | IC50 ([10]; Trypanosoma brucei, 72 h, read-out: Tb = Trypanosoma brucei, IC50) | SI = CC50(HEK293T)/IC50(Tb) ([10]; selectivity index HEK293T vs T. brucei) | SI = CC50(HepG2)/IC50(Tb) ([10]; selectivity index HepG2 vs T. brucei) | effect on ADP phosphorylation by T. brucei mitochondria (Δψ decrease after ADP) [11]
CC[C@@H](CO)NCCN[C@@H](CC)CO [compound 1, ethambutol] | 2 µg/mL (≈ 9.79 µM) | 1 µg/mL (≈ 4.89 µM) | – | – | – | – | – | – | – | – | – | – | – | – | –
CC(C)=CCC/C(C)=C/CNCCNC1C2CC3CC(C2)CC1C3 (centres unmarked) [compound 2, SQ109] | 0.1 to 0.5 µg/mL (≈ 0.303 to 1.51 µM) | 3.1 µg/mL (≈ 9.38 µM) | 0.15 µg/mL | 0.50 µg/mL | 0.1 to 0.5 µg/mL | 7.6 µg/mL (≈ 23 µM) | 2.8 µg/mL (≈ 8.47 µM) | 1.1 µg/mL (≈ 3.33 µM) | 1.9 µg/mL (≈ 5.75 µM) | 1.2 µg/mL (≈ 3.63 µM) | 0.15 µg/mL (≈ 0.454 µM) | 0.078 ± 0.001 µg/mL (≈ 0.236 µM) | 24 | 15 | –
CC[C@H]1/C=C/C=C/C[C@@H](C)[C@H](O)[C@@](C)(O)C(=O)[C@@H](C)[C@H](O)[C@@H](C)C(=O)[C@@H](C)[C@H](O)[C@@H](C)/C=C/C(=O)O[C@@H]2[C@H](C)[C@H](CC1)O[C@]1(CC[C@H](C)[C@H](C[C@@H](C)O)O1)[C@H]2C [oligomycin] | – | – | – | – | – | – | – | – | – | – | – | – | – | – | inhibited
